Measurements from ChEMBL document CHEMBL1123587, “Nucleosides. 139. Synthesis and anticytomegalovirus and antiherpes simplex virus activity of 5'-modified analogues of 2'-fluoroarabinosylpyrimidine nucleosides” (1987).

How the values were obtained:
Type in all cases: functional
Vero = test: Compound was evaluated for cytotoxicity in rapidly dividing Vero cells; conditions: Chlorocebus sabaeus, read-out: ID50 (the source's name)
Human alphaherpesvirus 2 [1] = test: Effective concentration required to inhibit replication of strain G of HSV-2 by 90%
Human alphaherpesvirus 1 [2] = test: Effective concentration required to inhibit replication of strain F of HSV-1 by 50%; conditions: read-out: ED50 (the source's name)
Human alphaherpesvirus 1 [3] = test: Effective concentration required to inhibit replication of strain F of HSV-1 by 90%
Human alphaherpesvirus 2 [4] = test: Effective concentration required to inhibit replication of strain G of HSV-2 by 50%; conditions: read-out: ED50 (the source's name)

| EC50 (Human alphaherpesvirus 1 [2]) | EC50 (Human alphaherpesvirus 2 [4]) | SMILES | IC50 (Vero) | ED90 (Human alphaherpesvirus 2 [1]) | ED90 (Human alphaherpesvirus 1 [3]) |
| --- | --- | --- | --- | --- | --- |
| 108 µM | > 200 µM | NCC1O[C@@H](n2cc(I)c(=O)[nH]c2=O)[C@H](F)[C@H]1O (stereo not given in full) | > 200 µM | >200 µM | >200 µM |
| > 400 µM | > 400 µM | CC1O[C@@H](n2cc(I)c(N)nc2=O)[C@H](F)[C@H]1O (stereo not given in full) | > 400 µM | >400 µM | >400 µM |
| 216 µM | > 200 µM | Nc1nc(=O)n([C@@H]2OC(CS)[C@H](O)[C@H]2F)cc1I (stereo not given in full) | 337 µM | >200 µM | 444 µM |
| 31.1 µM | 173 µM | Cc1cn([C@@H]2OC(C)[C@H](O)[C@H]2F)c(=O)[nH]c1=O (stereo not given in full) | 214 µM | 493 µM | 298 µM |
| 202 µM | > 400 µM | NCC1O[C@@H](n2cc(I)c(N)nc2=O)[C@H](F)[C@H]1O (stereo not given in full) | > 400 µM | >400 µM | 480 µM |
| > 200 µM | > 200 µM | Cc1cn([C@@H]2OC(CS)[C@H](O)[C@H]2F)c(=O)[nH]c1=O (stereo not given in full) | 314 µM | >200 µM | >200 µM |
| 220 µM | 135 µM | CC1O[C@@H](n2cc(I)c(=O)[nH]c2=O)[C@H](F)[C@H]1O (stereo not given in full) | > 400 µM | 290 µM | 384 µM |
| 346 µM | 224 µM | CC1O[C@@H](n2ccc(=O)[nH]c2=O)[C@H](F)[C@H]1O (stereo not given in full) | 333 µM | 379 µM | 538 µM |
| 0.78 µM | 5.6 µM | Cc1cn([C@@H]2OC(CN)[C@H](O)[C@H]2F)c(=O)[nH]c1=O (stereo not given in full) | 6.7 µM | 14 µM | 3 µM |
| 13.3 µM | 17.1 µM | CC1O[C@@H](n2ccc(N)nc2=O)[C@H](F)[C@H]1O (stereo not given in full) | 225 µM | 45.5 µM | 35.9 µM |
| 0.023 µM | 0.03 µM | Nc1nc(=O)n([C@@H]2O[C@H](CO)C(O)C2F)cc1I (single isomer, unassigned) [FIACITABINE] | 21.7 µM | 0.08 µM | 0.048 µM |
| 0.012 µM | 0.01 µM | O=c1[nH]c(=O)n([C@@H]2O[C@H](CO)C(O)C2F)cc1I (single isomer, unassigned) [FIALURIDINE] | 10.3 µM | 0.045 µM | 0.041 µM |

| SMILES | EC50 (Human alphaherpesvirus 1 [2]) | EC50 (Human alphaherpesvirus 2 [4]) | IC50 (Vero) | ED90 (Human alphaherpesvirus 2 [1]) | ED90 (Human alphaherpesvirus 1 [3]) |
| --- | --- | --- | --- | --- | --- |
| Cc1cn([C@@H]2O[C@H](CO)C(O)C2F)c(=O)[nH]c1=O (single isomer, unassigned) [5-METHYL-2'-FLUOROARAURACIL] | 0.018 µM | 0.023 µM | 2.8 µM | 0.09 µM | 0.047 µM |
